Experimental data from PMC5432571 (Frontiers in Molecular Neuroscience, 2017).

Assays:
homomeric α1 GlyR = target: T1, homomeric α1 GlyR (Homo sapiens, UniProt P23415); assay: Whole-cell patch-clamp of glycine-induced currents, α1 GlyR expressed in CHO cells; assay type: cell-based; details: PTX 20 μM; glycine 30 μM; Vhold −30 mV
T1 construct: expressed in transfected cells; host or cells: CHO cells
T1 sequence (P23415 29-449 isoform P23415-2 limits assumed): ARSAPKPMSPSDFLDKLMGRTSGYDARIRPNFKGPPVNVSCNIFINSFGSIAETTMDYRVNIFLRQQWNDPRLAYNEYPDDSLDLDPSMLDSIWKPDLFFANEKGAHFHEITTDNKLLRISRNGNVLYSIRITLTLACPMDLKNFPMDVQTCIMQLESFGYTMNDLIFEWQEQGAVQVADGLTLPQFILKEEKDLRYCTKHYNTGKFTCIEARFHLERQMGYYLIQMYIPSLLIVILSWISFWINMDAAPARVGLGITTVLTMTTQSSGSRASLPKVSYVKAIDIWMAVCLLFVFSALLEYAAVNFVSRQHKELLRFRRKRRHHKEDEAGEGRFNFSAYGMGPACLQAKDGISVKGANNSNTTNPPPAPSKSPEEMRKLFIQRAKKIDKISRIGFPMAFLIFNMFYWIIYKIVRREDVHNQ
Method: (§1) The experiments were carried out on cultured Chinese hamster ovary (CHO) cells obtained from the American Type Tissue Culture Collection (ATCC, Molsheim, France) that were maintained in culture conditions as previously described (Mukhtarov et al., [2013]; Maleeva et al., [2015]).
(§2) One day before transfection, cells were plated on the cover slips (12 mm in diameter) and placed inside 35-mm cell culture dishes with 2 ml of medium. Transfection was performed using the Lipofectamine 3000 protocol (Life Technology, USA). To facilitate identification of transfected cells a green fluorescent protein (GFP) was added to the transfection mixture. For expression of functional heteromeric receptors, cells were simultaneously transfected with cDNAs of α and β subunits in the ratio 1:10. Three hours after the initial exposure of cells to the cDNAs the culture medium was replaced with that containing strychnine (1 μM), which prevents spontaneous activation of GlyRs. Electrophysiological recordings were performed in the fluorescent cells 24–72 h after transfection.
(§3) Whole-cell and outside-out recordings were performed at room temperature (20–25°C) using an EPC-9 amplifier (HEKA Elektronik, Germany). Cells were continuously superfused with external solution containing (mM): NaCl 140, CaCl2 2, KCl 2.8, MgCl2 4, HEPES 20, glucose 10; pH 7.4; 320–330 mOsm. Intracellular solution used for filling recording patch pipettes contained (mM): CsCl 140, CaCl2 6, MgCl2 2, MgATP 2, NaGTP 0.4, HEPES/CsOH 10, BAPTA (tetrapotassium salt) 2; pH 7.3; 290 mOsm. Two different protocols of solutions application were used in this study. […] A “ramp protocol” implies the gradual change of Vhold alternately from −80 to +80 mV and from +80 to −80 mV during 1 s, Vhold was fixed at −80 or +80 mV at the beginning and at the end of the ramp for 500 ms (Figure 2B).
(§4) Recording pipettes were pulled from borosilicate glass capillaries (Harvard Apparatus Ltd, USA) and had resistances of 5–10 MOhm. For the rapid replacement of the solutions, the fast application system was used. Three parallel rectangular tubes (100 × 100 μm) were positioned 40–50 μm above the recorded cell. The movement of the tubes was controlled by a computer-driven fast exchange system (SF 77A Perfusion Fast-Step, Warner, USA) allowing a 10–90% solution exchange in 3–5 ms, as measured by open electrode controls (1/10 external solution/water). Cells with low input resistance (<150 MOhm) and a rapid run-down (>30% with repetitive application) were excluded from analysis.
(§5) Electrophysiological recordings were performed using PatchMaster (HEKA Electronic, Germany) software.
(§6) The fractional electrical distance from the external side of the membrane (δ) at which bound NFA blocked the current was calculated using the Woodhull equation: IC50(V)=IC50(0) exp (−δFV/RT), where IC50(V) is IC50 at the given membrane potential, IC50(0) – at 0 mV, V – membrane potential and F, R, T have their usual meanings. δ was determined from a plot of IC50 values against membrane potential.

α2 GlyR = target: T2, α2 GlyR (Homo sapiens, UniProt P23416); assay: Whole-cell patch-clamp of glycine-induced currents, α2 GlyR expressed in CHO cells; assay type: cell-based; details: PTX 20 μM; glycine 30 μM; Vhold −30 mV
T2 construct: expressed in transfected cells; host or cells: CHO cells
T2 sequence (P23416 28-452 isoform P23416-2 limits assumed): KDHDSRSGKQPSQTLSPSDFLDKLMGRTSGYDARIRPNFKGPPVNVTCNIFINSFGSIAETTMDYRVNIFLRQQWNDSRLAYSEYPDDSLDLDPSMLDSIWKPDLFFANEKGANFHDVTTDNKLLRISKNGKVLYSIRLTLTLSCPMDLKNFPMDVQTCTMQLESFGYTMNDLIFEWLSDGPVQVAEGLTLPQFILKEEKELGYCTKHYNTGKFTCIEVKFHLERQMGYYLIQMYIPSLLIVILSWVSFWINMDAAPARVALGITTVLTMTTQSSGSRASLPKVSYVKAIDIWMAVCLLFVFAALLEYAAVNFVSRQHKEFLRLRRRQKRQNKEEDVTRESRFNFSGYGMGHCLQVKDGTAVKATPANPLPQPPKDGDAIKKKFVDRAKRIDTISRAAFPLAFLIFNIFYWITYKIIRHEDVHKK
Method: as §1, §2, §3, §4, §5, §6

α1β GlyR = target: T3, α1β GlyR (Homo sapiens, UniProt P23415+P48167); assay: Whole-cell patch-clamp of glycine-induced currents, heteromeric α1β GlyR expressed in CHO cells; assay type: cell-based; details: PTX 20 μM; glycine 30 μM; Vhold −30 mV
T3 construct: expressed in transfected cells; host or cells: CHO cells
Method: as §1, §2, §3, §4, §5

α2β GlyR = target: T4, α2β GlyR (Homo sapiens, UniProt P23416+P48167); assay: Whole-cell patch-clamp of glycine-induced currents, heteromeric α2β GlyR expressed in CHO cells; assay type: cell-based; details: PTX 20 μM; glycine 30 μM; Vhold −30 mV
T4 construct: expressed in transfected cells; host or cells: CHO cells
Method: as §1, §2, §3, §4, §5

α2 GlyRs = details: read-out: mean value of EC50 for glycine; ref Maleeva et al., 2015; cited from earlier work

T4 sequence (P48167 23-497, one chain of several): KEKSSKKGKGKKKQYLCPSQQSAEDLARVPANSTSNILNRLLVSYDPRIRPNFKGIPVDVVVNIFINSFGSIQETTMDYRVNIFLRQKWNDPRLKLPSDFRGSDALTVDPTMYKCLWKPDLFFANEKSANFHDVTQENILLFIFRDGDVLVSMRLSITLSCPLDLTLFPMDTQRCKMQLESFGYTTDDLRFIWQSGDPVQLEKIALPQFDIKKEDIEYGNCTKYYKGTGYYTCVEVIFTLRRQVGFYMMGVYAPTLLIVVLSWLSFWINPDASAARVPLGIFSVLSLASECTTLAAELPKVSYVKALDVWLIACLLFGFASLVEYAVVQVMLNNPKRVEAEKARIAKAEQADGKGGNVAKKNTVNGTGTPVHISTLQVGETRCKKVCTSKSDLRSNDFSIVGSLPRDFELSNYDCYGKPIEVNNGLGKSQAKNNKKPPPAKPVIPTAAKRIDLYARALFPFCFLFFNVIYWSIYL
T3 sequence (P48167 23-497, one chain of several): as above

picrotoxin [PTX]
amplitude of current, % of the control (homomeric α1 GlyR): 27 ± 3%
amplitude of current, % of the control (α2 GlyR): 3 ± 1%
current, % from the control (α1β GlyR): 75 ± 2%
current, % from the control (α2β GlyR): 41 ± 4%

NCC(=O)O [glycine]
EC50 (α2 GlyRs): 42 ± 2 µM
